Results published in publication PMC8187206 (Pharmacological Reports, 2020).

How the values were obtained:
[1] = cited from earlier work
[2] = Plasma pharmacokinetics of sorafenib and sorafenib N-oxide after single oral sorafenib in diabetic and healthy rats (HPLC-UV, non-compartmental analysis); type: in vivo, Wistar-strain rats; settings: single oral sorafenib 100 mg/kg
Method: The experimental protocol for this study was reviewed and approved by the Local Ethics Committee. All procedures were performed in accordance with European Union regulations concerning the handling and use of laboratory animals. The study was conducted following the principles of the 3Rs (Replacement, Reduction and Refinement). Adult male Wistar-strain rats (weight 400–445 g) were used in the study. The animals were maintained under standard breeding conditions with a 12 h light–12 h dark cycle at constant room temperature (23 ± 2 °C), relative humidity (55 ± 10%) and given ad libitum access to feed and water. After acclimatisation the rats were randomly assigned into two groups: the diabetic group (DG) (n = 8) and the healthy group (HG) (n = 8).
(§1) DG rats were fed a high-fat diet (Labofeed B, 60% fat; Morawski, Poland) for a period of 4 weeks to induce insulin resistance. After 2 weeks of dietary manipulation the animals were intraperitoneally injected with STZ (35 mg/kg body weight in 1000 μL of sterile citrate buffer, pH 4.2). Citrate buffer was injected as a vehicle in HG. The high-fat diet was continued for subsequent 2 weeks in the DG. The rats in the HG were fed with standard diet (Labofeed B, 8% fat) and water ad libitum. The rats with the blood glucose level ≥ 250 mg/dL were considered diabetic and qualified for this study. The percentage reduction of the glucose levels in the rats was calculated using the following formula: %Reductionglucose=(V0-Vt)·100/V0, where V0 glucose concentration at baseline and Vt glucose concentration at the time of maximum reduction.
(§2) After injecting streptozotocin 10% glucose solution was additionally administered for 24 h to prevent hypoglycaemia. […] The drug was dissolved in 1 mL 10% DMSO and administered orally by means of a gastric feeding tube. 0.1 mL blood samples were collected from rats by cutting a piece of their tails. The samples were collected at the following time points: 0, 0.5, 1, 1.5, 2, 3, 4, 5, 6, 7, 8, 10, 12, 24, 30, 48, 72, 96 h. Each time on blood collection glycaemia was measured.
The validation was performed according to the guidelines of the European Medicines Agency (EMA) concerning validation of bioanalytical methods. Chromatographic analysis was conducted on a Alliance® system with 2695 Separation Module and a Dual Lambda (λ) absorbance detector (Waters Corporation®, USA). Data acquisition was performed using Empower software v. 1154. Separation was carried out on Symmetry® C8 column (250 mm × 4.6 mm, 5.0 µm particle size, Waters Corporation®, USA). The column temperature was maintained at 25 °C. The mobile phase consisted of ammonium acetate 0.1 M pH = 3.4 (adjusted with glacial acetic acid) (solvent A) and acetonitrile (solvent B). The following gradient was used: the percentage A was decreased from 60 to 29%, while at the same time over 21 min percentage B increased linearly from 40 to 71%. The UV detection wavelength was set at 265 nm, and the injection volume was 20 µL. The volume of the analyzed rat plasma was 25 µL. The samples were determined using liquid–liquid extraction.
The maximum plasma concentration (Cmax) and the time to reach the maximum plasma concentration (tmax) were obtained directly from the concentration—time data. The elimination rate constant (kel) was estimated from the slope of the terminal linear segment of the log mean concentration-time plot using the automatic best-fitting option in WinNonlin 8.1. The elimination half-life (t1/2kel) was calculated from ln2/kel. The area under the concentration-time curve from zero to the time of the last concentration measured (AUC0−t) was calculated by a linear trapezoidal rule and the residual area under the curve (AUCres) was estimated by extrapolation from the last concentration measured (Clast) to infinity using Clast/kel ratio. The area under curve from zero to infinity (AUC0−∞) was computed as a sum of AUC0−t and AUCres.

[3] = test system: streptozotocin-induced diabetic rats; assay: Effect of a single sorafenib dose on blood glucose level (glycaemia); type: in vivo, Wistar-strain rats; settings: DG group (diabetic rats), single oral sorafenib 100 mg/kg
Method: as §1, §2

[4] = as above; type: in vivo, Wistar-strain rats; settings: control group (healthy rats), single oral sorafenib 100 mg/kg
Method: as §1, §2

patients = settings: multiple administration of the TKI; cited from earlier work
[5] = diabetic animals (streptozotocin-induced for sunitinib and lapatinib, alloxan-induced rabbits for erlotinib); cited from earlier work
[6] = increase in diabetic versus healthy rats

Row | SMILES | AUC0−t higher in the DG when compared to the HG [2, 6] [%] | AUC0−∞ higher in the DG when compared to the HG [2, 6] [%] | Cmax higher in the DG when compared to the HG [2, 6] [%] | Cmax in diabetic animals [5] | total exposure in diabetic animals [5] | other results
1 | CNC(=O)c1cc(Oc2ccc(NC(=O)Nc3ccc(Cl)c(C(F)(F)F)c3)cc2)cc[n+]1[O-] [Sorafenib N-oxide, sorafenib N-oxide] | 112.55 | 91.87 | 119.57 | – | – | share of circulating substances at steady state [1]: 9–16%; AUMC0-t increase in the DG [2, 6]: 134.31%; AUMC0-∞ increase in the DG [2, 6]: 85.33%
2 | CNC(=O)c1cc(Oc2ccc(NC(=O)Nc3ccc(Cl)c(C(F)(F)F)c3)cc2)ccn1 [Sorafenib] | 66.4 | 56.0 | 88.7 | – | – | time of maximum reduction of glycaemia after the sorafenib administration [3]: 1.5 to 11 h; maximum reduction of glycaemia ([3]; (V0-Vt)·100/V0): 11.2–50.8%; glucose levels [4]: did not decrease; effect on blood glucose after multiple administration (patients): hypoglycaemic effect; Cl/F decreased in diabetic animals ([2]; decrease in diabetic versus healthy rats): 40%
3 | C#Cc1cccc(Nc2ncnc3cc(OCCOC)c(OCCOC)cc23)c1 [erlotinib] | – | – | – | significantly increased | significantly increased | –
4 | CS(=O)(=O)CCNCc1ccc(-c2ccc3ncnc(Nc4ccc(OCc5cccc(F)c5)c(Cl)c4)c3c2)o1 [lapatinib] | – | – | – | significantly increased | significantly increased | –
5 | CCN(CC)CCNC(=O)c1c(C)[nH]c(/C=C2\C(=O)Nc3ccc(F)cc32)c1C [sunitinib] | – | – | – | significantly increased | significantly increased | –
